# Columns and labels:
# [1] = Selectivity index, ratio of CC50 for cytotoxicity against human MT4 cells to EC50 for antiviral activity against wild type HIV-1 IIIB infected in human MT4 cells; format: toxicity, cell-based; settings: read-out: Ratio CC50/EC50
# [2] = system: Human immunodeficiency virus 1; assay: Antiviral activity against HIV-1 RES056 harboring RT K103N/Y181C double mutant infected in human MT4 cells assessed as protection against virus-induced cytopathic effect incubated for 5 days by MTT assay; format: functional, organism-based; settings: Human immunodeficiency virus 1, RES056, MT4, 120 h
# [3] = Selectivity index, ratio of CC50 for cytotoxicity against human MT4 cells to EC50 for antiviral activity against HIV-1 RES056 harboring RT K103N/Y181C double mutant infected in human MT4 cells; format: toxicity, cell-based; settings: read-out: Ratio CC50/EC50
# [4] = system: Human immunodeficiency virus 1; assay: Antiviral activity against wild type HIV-1 IIIB infected in human MT4 cells assessed as protection against virus-induced cytopathic effect incubated for 5 days by MTT assay; format: functional, organism-based; settings: Human immunodeficiency virus 1, IIIB, MT4, 120 h
# [5] = Cytotoxicity against human MT4 cells assessed as reduction in cell viability measured after 5 days by MTT assay; format: toxicity, cell-based; settings: time 5 day
SMILES,selectivity ratio [1],EC50 [2],selectivity ratio [3],EC50 [4],CC50 at 120 h [5]
Cc1cc(C#N)cc(C)c1Oc1nc(NC2CCN(c3c(F)cc(N)cc3F)CC2)nc2ccsc12,146,> 5.54 µM,< 1,0.0374 µM,5.45 µM
Cc1cc(-c2ccc(C#N)cc2)cc(C)c1Oc1nc(Nc2ccc(C#N)nc2)nc2ccsc12,28100,0.381 µM,563,0.00762 µM,214 µM
Cc1cc(/C=C/C#N)cc(C)c1Oc1nc(NC2CCN(c3ccc([N+](=O)[O-])cc3F)CC2)nc2sccc12,> 7740,1.35 µM,> 169,0.0296 µM,> 229 µM
Cc1cc(/C=C/C#N)cc(C)c1Oc1nc(NC2CCN(c3c(F)cc([N+](=O)[O-])cc3F)CC2)nc2sccc12,> 3260,27.4 µM,> 8,0.068 µM,> 222 µM
Cc1cc(/C=C/C#N)cc(C)c1Oc1nc(NC2CCN(c3ccc(N)cc3F)CC2)nc2sccc12,418,1.06 µM,13,0.0325 µM,13.6 µM
Cc1cc(-c2ccc(F)cc2)cc(C)c1Oc1nc(Nc2ccc(C#N)c(F)c2)nc2ccsc12,140,8.6 µM,11,0.695 µM,97.3 µM
Cc1cc(/C=C/C#N)cc(C)c1Oc1nc(NC2CCN(c3c(F)cc([N+](=O)[O-])cc3F)CC2)nc2ccsc12,794,7.67 µM,13,0.125 µM,99.5 µM
Cc1cc(C#N)cc(C)c1Oc1nc(NC2CCN(c3c(F)cc(N)cc3F)CC2)nc2sccc12,168,> 5.45 µM,< 1,0.0325 µM,5.45 µM
N#C/C=C/c1cc(F)c(Oc2nc(Nc3ccc(C#N)c(F)c3)nc3ccsc23)c(F)c1,878,6.71 µM,14,0.109 µM,96 µM
Cc1cc(C#N)cc(C)c1Oc1nc(NC2CCN(c3ccc(N)cc3)CC2)nc2sccc12,864,1.74 µM,18,0.0359 µM,31 µM
Cc1cc(C#N)cc(C)c1Oc1nc(NC2CCN(c3c(F)cc([N+](=O)[O-])cc3F)CC2)nc2ccsc12,12900,> 30.3 µM,< 1,0.057 µM,740 µM
N#C/C=C/c1cc(F)c(Oc2nc(Nc3ccc(C#N)c(F)c3)nc3sccc23)c(F)c1,2240,> 117 µM,< 1,0.0524 µM,117 µM
Cc1cc(C#N)cc(C)c1Oc1nc(NC2CCN(c3ccc([N+](=O)[O-])cc3F)CC2)nc2ccsc12,23100,> 30.3 µM,< 1,0.0321 µM,740 µM
Cc1cc(/C=C/C#N)cc(C)c1Oc1nc(NC2CCN(c3c(F)cc(NS(N)(=O)=O)cc3F)CC2)nc2ccsc12,539,1.94 µM,10,0.0371 µM,20 µM
Cc1cc(C#N)cc(C)c1Oc1nc(NC2CCN(c3ccc(NS(N)(=O)=O)cc3)CC2)nc2sccc12,1930,0.633 µM,39,0.0129 µM,24.9 µM
N#C/C=C/c1cc(F)c(Oc2nc(Nc3ccc(C#N)nc3)nc3sccc23)c(F)c1,1840,7.55 µM,1.7,0.00698 µM,12.8 µM

SMILES,selectivity ratio [1],EC50 [2],selectivity ratio [3],EC50 [4],CC50 at 120 h [5]
Cc1cc(C#N)cc(C)c1Oc1nc(NC2CCN(c3ccc(NS(N)(=O)=O)cc3F)CC2)nc2ccsc12,1080,4.93 µM,5,0.0229 µM,24.7 µM
Cc1cc(C#N)cc(C)c1Oc1nc(NC2CCN(c3c(F)cc(NS(N)(=O)=O)cc3F)CC2)nc2ccsc12,357,7.51 µM,2,0.0353 µM,12.6 µM
Cc1cc(/C=C/C#N)cc(C)c1Oc1nc(NC2CCN(c3ccc([N+](=O)[O-])cc3F)CC2)nc2ccsc12,101,> 14.2 µM,< 1,0.14 µM,14.2 µM
Cc1cc(/C=C/C#N)cc(C)c1Oc1nc(NC2CCN(c3ccc(NS(N)(=O)=O)cc3F)CC2)nc2ccsc12,2910,0.832 µM,26,0.00746 µM,21.7 µM
Cc1cc(/C=C/C#N)cc(C)c1Oc1nc(NC2CCN(c3ccc(N)cc3F)CC2)nc2ccsc12,735,0.876 µM,26,0.0313 µM,23 µM
Cc1cc(-c2ccc(C#N)cc2)cc(C)c1Oc1nc(Nc2ccc(C#N)nc2)nc2sccc12,16600,1.53 µM,119,0.0109 µM,181 µM
Cc1cc(-c2ccc(C#N)cc2)cc(C)c1Oc1nc(Nc2ccc(C#N)c(F)c2)nc2sccc12,> 3010,0.493 µM,> 517,0.0847 µM,> 254 µM
Cc1cc(/C=C/C#N)cc(C)c1Oc1nc(NC2CCN(c3c(F)cc(N)cc3F)CC2)nc2ccsc12,246,1.57 µM,5,0.032 µM,7.88 µM
Cc1cc(-c2ccc(C#N)cc2)cc(C)c1Oc1nc(Nc2ccc(C#N)c(F)c2)nc2ccsc12,101,6.35 µM,11,0.711 µM,71.5 µM
Cc1cc(C#N)cc(C)c1Oc1nc(NC2CCN(c3ccc(N)cc3F)CC2)nc2sccc12,1300,2.6 µM,10,0.0207 µM,26.9 µM
Cc1cc(C#N)cc(C)c1Oc1nc(NC2CCN(c3c(F)cc([N+](=O)[O-])cc3F)CC2)nc2sccc12,> 5170,> 211 µM,< 1,0.0451 µM,> 233 µM
Cc1cc(C#N)cc(C)c1Oc1nc(NC2CCN(c3ccc([N+](=O)[O-])cc3)CC2)nc2sccc12,> 12100,53.8 µM,> 5,0.0206 µM,> 249 µM
Cc1cc(C#N)cc(C)c1Oc1nc(NC2CCN(c3ccc([N+](=O)[O-])cc3F)CC2)nc2sccc12,935,> 37.4 µM,< 1,0.04 µM,37.4 µM
Cc1cc(C#N)cc(C)c1Oc1nc(NC2CCN(c3ccc(N)cc3F)CC2)nc2ccsc12,300,> 12.2 µM,< 1,0.0404 µM,12.1 µM
Cc1cc(C#N)cc(C)c1Oc1nc(NC2CCN(c3ccc(NS(N)(=O)=O)cc3F)CC2)nc2sccc12,2720,3.41 µM,6,0.0079 µM,21.5 µM
Cc1cc(C#N)cc(C)c1Oc1nc(NC2CCN(c3c(F)cc(NS(N)(=O)=O)cc3F)CC2)nc2sccc12,322,> 3.96 µM,< 1,0.0123 µM,3.96 µM
